Patent US10660876B2, “Amino compounds for treatment of medical disorders” (Achillion Pharmaceuticals, Inc., priority 2015, dated 2020)

The compounds below were run against Human Factor D (Homo sapiens (Human), UniProt P00746) (assay: Human Factor D Assay). Conditions: Table 1; Factor D purified from human serum, 80 nM, substrate Z-L-Lys-SBzl; read-out: IC50.
Type: biochemical
Procedure: Example 12. Human Factor D Assay
Human Factor D (purified from human serum, Complement Technology, Inc.) at 80 nM final concentration is incubated with test compound at various concentrations for 5 minutes at room temperature in 50 mM Tris, 1M NaCl, pH 7.5. A synthetic substrate Z-L-Lys-SBzl and DTNB (Ellman's reagent) are added to final concentrations of 100 μM each. Absorbance at 405 nm (A405) is recorded at 30 second intervals for 30 minutes using a microplate spectrophotometer. IC50 values are calculated by nonlinear regression of complement Factor D reaction rates as a function of test compound concentration.

Sequence of Human Factor D (P00746 26-253): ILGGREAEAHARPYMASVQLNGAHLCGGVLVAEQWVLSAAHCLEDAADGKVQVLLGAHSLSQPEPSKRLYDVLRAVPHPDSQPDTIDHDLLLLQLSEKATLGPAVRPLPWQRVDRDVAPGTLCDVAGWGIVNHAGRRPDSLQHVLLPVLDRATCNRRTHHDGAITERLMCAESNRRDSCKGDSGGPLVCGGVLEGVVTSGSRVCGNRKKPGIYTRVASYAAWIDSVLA

| Structure (SMILES) | IC50 |
| --- | --- |
| CC(=O)c1cn(CC(=O)N2C[C@H](F)C[C@H]2C(=O)NCc2ccncc2)c2ccc(Nc3cncnc3)cc12 [Compound 59, (2S,4R)-1-(2-(3-acetyl-5-(pyrimidin-5-ylamino)-1H-indol-1-yl)acetyl)-4-fluoro-N-(pyridin-4-ylmethyl) pyrrolidine-2-carboxamide] | < 1000 nM |
| CC(=O)c1cn(CC(=O)N2C[C@H](F)C[C@H]2C(=O)Nc2cc(C)nc3nc(C(F)(F)F)nn23)c2ccc(Nc3cncnc3)cc12 [Compound 41, (2S,4R)-1-(2-(3-acetyl-5-(pyrimidin-5-ylamino)-1H-indol-1-yl)acetyl)-4-fluoro-N-(5-methyl-2-(trifluoromethyl)-[1,2,4]triazolo[1,5-a]pyrimidin-7-yl)pyrrolidine-2-carboxamide] | > 10000 nM |
| CC(=O)c1cn(CC(=O)N2C[C@H](F)C[C@H]2C(=O)NCc2ccccn2)c2ccc(Nc3cncnc3)cc12 [Compound 17, (2S,4R)-1-(2-(3-acetyl-5-(pyrimidin-5-ylamino)-1H-indol-1-yl)acetyl)-4-fluoro-N-(pyridin-2-ylmethyl) pyrrolidine-2-carboxamide] | < 1000 nM |
| CC(=O)c1cn(CC(=O)N2C[C@H](F)C[C@H]2C(=O)Nc2nccc(Cl)n2)c2ccc(Nc3cncnc3)cc12 [Compound 73, (2S,4R)-1-(2-(3-acetyl-5-(pyrimidin-5-ylamino)-1H-indol-1-yl)acetyl)-N-(4-chloropyrimidin-2-yl)-4-fluoropyrrolidine-2-carboxamide] | < 1000 nM |
| CC(=O)c1cn(CC(=O)N2C[C@H](F)C[C@H]2C(=O)Nc2cccnc2)c2ccc(Nc3cncnc3)cc12 [Compound 31, (2S,4R)-1-(2-(3-acetyl-5-(pyrimidin-5-ylamino)-1H-indol-1-yl)acetyl)-4-fluoro-N-(pyridin-3-yl)pyrrolidine-2-carboxamide] | < 1000 nM |
| CC(=O)c1cn(CC(=O)N2C[C@H](F)C[C@H]2C(=O)Nc2cccc3c2NC(=O)C(C)O3)c2ccc(Nc3cncnc3)cc12 (stereo partly drawn) [Compound 71, (2S,4R)-1-(2-(3-acetyl-5-(pyrimidin-5-ylamino)-1H-indol-1-yl)acetyl)-4-fluoro-N-(2-methyl-3-oxo-3,4-dihydro-2H-benzo[b][1,4]oxazin-5-yl)pyrrolidine-2-carboxamide] | 1000 to 10000 nM |
| CC(=O)c1cn(CC(=O)N2C[C@H](F)C[C@H]2C(=O)Nc2cncc(Cl)c2)c2ccc(Nc3cncnc3)cc12 [Compound 22, (2S,4R)-1-(2-(3-acetyl-5-(pyrimidin-5-ylamino)-1H-indol-1-yl)acetyl)-N-(5-chloropyridin-3-yl)-4-fluoropyrrolidine-2-carboxamide] | < 1000 nM |
| CC(=O)c1cn(CC(=O)N2C[C@H](F)C[C@H]2C(=O)Nc2cc3c(cc2F)OC(F)(F)O3)c2ccc(Nc3cncnc3)cc12 [Compound 35, (2S,4R)-1-(2-(3-acetyl-5-(pyrimidin-5-ylamino)-1H-indol-1-yl)acetyl)-4-fluoro-N-(2,2,6-trifluorobenzo[d] [1,3]dioxol-5-yl)pyrrolidine-2-carboxamide] | < 1000 nM |
| NC(=O)c1nn(CC(=O)N2C[C@H](F)C[C@H]2C(=O)Nc2cccc(Cl)n2)c2ccc(Nc3cccnn3)cc12 [Compound 11, 1-(2-((2S,4R)-2-(6-chloropyridin-2-ylcarbamoyl)-4-fluoropyrrolidin-1-yl)-2-oxoethyl)-5-(pyridazin-3-ylamino)-1H-indazole-3-carboxamide] | < 1000 nM |
| CC(=O)c1cn(CC(=O)N2C[C@H](F)C[C@H]2C(=O)Nc2ccc3[nH]c(C)c(C)c3c2)c2ccc(Nc3cncnc3)cc12 [Compound 38, (2S,4R)-1-(2-(3-acetyl-5-(pyrimidin-5-ylamino)-1H-indol-1-yl)acetyl)-N-(2,3-dimethyl-1H-indol-5-yl)-4-fluoropyrrolidine-2-carboxamide] | < 1000 nM |
| CC(=O)c1cn(CC(=O)N2C[C@H](F)C[C@H]2C(=O)Nc2cncc(Br)n2)c2ccc(Nc3cncnc3)cc12 [Compound 47, (2S,4R)-1-(2-(3-acetyl-5-(pyrimidin-5-ylamino)-1H-indol-1-yl)acetyl)-N-(6-bromopyrazin-2-yl)-4-fluoropyrrolidine-2-carboxamide] | < 1000 nM |
| CC(=O)c1cn(CC(=O)N2C[C@H](F)C[C@H]2C(=O)NC2CCCc3nc(-c4ccc(F)cc4)sc32)c2ccc(Nc3cncnc3)cc12 (stereo partly drawn) [Compound 28, (2S,4R)-1-(2-(3-acetyl-5-(pyrimidin-5-ylamino)-1H-indol-1-yl)acetyl)-4-fluoro-N-(2-(4-fluorophenyl)-4,5,6,7-tetrahydrobenzo[d]thiazol-7-yl)pyrrolidine-2-carboxamide] | > 10000 nM |
| CC(=O)c1cn(CC(=O)N2C[C@H](F)C[C@H]2C(=O)Nc2n[nH]c(C)c2-c2ccccc2)c2ccc(Nc3cncnc3)cc12 [Compound 66, (2S,4R)-1-(2-(3-acetyl-5-(pyrimidin-5-ylamino)-1H-indol-1-yl)acetyl)-4-fluoro-N-(5-methyl-4-phenyl-1H-pyrazol-3-yl)pyrrolidine-2-carboxamide] | < 1000 nM |
| CC(=O)c1cn(CC(=O)N2C[C@H](F)C[C@H]2C(=O)Nc2cncc(Cl)n2)c2ccc(Nc3cncnc3)cc12 [Compound 33, (2S,4R)-1-(2-(3-acetyl-5-(pyrimidin-5-ylamino)-1H-indol-1-yl)acetyl)-N-(6-chloropyrazin-2-yl)-4-fluoropyrrolidine-2-carboxamide] | < 1000 nM |
| CC(=O)c1cn(CC(=O)N2C[C@H](F)C[C@H]2C(=O)Nc2cccc(Cl)n2)c2ccc(Nc3cncnc3)cc12 [Compound 6, (2S,4R)-1-(2-(3-acetyl-5-(pyrimidin-5-ylamino)-1H-indol-1-yl)acetyl)-N-(6-chloropyridin-2-yl)-4-fluoropyrrolidine-2-carboxamide] | < 1000 nM |
| CC(=O)c1cn(CC(=O)N2C[C@H](F)C[C@H]2C(=O)NC2CCN(c3ccn(C)n3)C2=O)c2ccc(Nc3cncnc3)cc12 (stereo partly drawn) [Compound 64, (2S,4R)-1-(2-(3-acetyl-5-(pyrimidin-5-ylamino)-1H-indol-1-yl)acetyl)-4-fluoro-N-(1-(1-methyl-1H-pyrazol-3-yl)-2-oxopyrrolidin-3-yl)pyrrolidine-2-carboxamide] | < 1000 nM |
| CC(=O)c1cn(CC(=O)N2C[C@H](F)C[C@H]2C(=O)Nc2ccc(OCc3ccccc3)cn2)c2ccc(Nc3cncnc3)cc12 [Compound 45, (2S,4R)-1-(2-(3-acetyl-5-(pyrimidin-5-ylamino)-1H-indol-1-yl)acetyl)-N-(5-(benzyloxy)pyridin-2-yl)-4-fluoropyrrolidine-2-carboxamide] | < 1000 nM |
| NC(=O)c1nn(CC(=O)N2C[C@H](F)C[C@H]2C(=O)Nc2cccc(Cl)n2)c2ccc(Nc3cncnc3)cc12 [Compound 12, 1-(2-((2S,4R)-2-(6-chloropyridin-2-ylcarbamoyl)-4-fluoropyrrolidin-1-yl)-2-oxoethyl)-5-(pyrimidin-5-ylamino)-1H-indazole-3-carboxamide] | < 1000 nM |
| CC(=O)c1cn(CC(=O)N2C[C@H](F)C[C@H]2C(=O)Nc2cccc3c2OC(C)(C)C3)c2ccc(Nc3cncnc3)cc12 [Compound 24, (2S,4R)-1-(2-(3-acetyl-5-(pyrimidin-5-ylamino)-1H-indol-1-yl)acetyl)-N-(2,2-dimethyl-2,3-dihydrobenzofuran-7-yl)-4-fluoropyrrolidine-2-carboxamide] | < 1000 nM |
| CC(=O)c1cn(CC(=O)N2C[C@H](F)C[C@H]2C(=O)Nc2nc(-c3cccc(Cl)c3)ns2)c2ccc(Nc3cncnc3)cc12 [Compound 60, (2S,4R)-1-(2-(3-acetyl-5-(pyrimidin-5-ylamino)-1H-indol-1-yl)acetyl)-N-(3-(3-chlorophenyl)-1,2,4-thiadiazol-5-yl)-4-fluoropyrrolidine-2-carboxamide] | > 10000 nM |
| CC(=O)c1cn(CC(=O)N2C[C@H](F)C[C@H]2C(=O)Nc2ccc3ccccc3c2)c2ccc(Nc3cncnc3)cc12 [Compound 46, (2S,4R)-1-(2-(3-acetyl-5-(pyrimidin-5-ylamino)-1H-indol-1-yl)acetyl)-4-fluoro-N-(naphthalen-2-yl)pyrrolidine-2-carboxamide] | < 1000 nM |
